Experiments:
[1] = biological target: T1, GATOR2-Sestrin2 interaction (Homo sapiens, UniProt P58004); assay: Sestrin2-GATOR2 interaction in HEK-293T cells after starvation/restimulation (co-immunoprecipitation); format: cell-based
T1 construct: To isolate the FLAG-WDR24/endogenous-Sestrin2 complex; endogenous in cells; host or cells: HEK-293T cells stably expressing FLAG-WDR24; Sestrin2 and the other GATOR2 subunits are endogenous
T1 sequence (P58004 1-480): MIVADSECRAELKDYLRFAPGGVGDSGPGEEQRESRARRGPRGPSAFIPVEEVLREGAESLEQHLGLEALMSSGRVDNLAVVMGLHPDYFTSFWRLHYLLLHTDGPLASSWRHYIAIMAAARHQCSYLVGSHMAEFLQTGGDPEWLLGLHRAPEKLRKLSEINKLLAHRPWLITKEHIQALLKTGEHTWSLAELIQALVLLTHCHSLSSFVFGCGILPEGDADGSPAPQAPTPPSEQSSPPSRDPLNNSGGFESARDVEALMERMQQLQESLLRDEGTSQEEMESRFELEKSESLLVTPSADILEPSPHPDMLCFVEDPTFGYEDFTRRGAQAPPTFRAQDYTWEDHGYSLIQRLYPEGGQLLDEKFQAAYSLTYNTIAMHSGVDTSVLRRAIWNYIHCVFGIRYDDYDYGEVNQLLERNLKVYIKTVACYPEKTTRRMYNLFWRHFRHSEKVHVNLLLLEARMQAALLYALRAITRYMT
Protocol: In order to determine the effect of amino acids on the GATOR2-Sestrin interaction, transfected cells were incubated in amino acid free RPMI for 50 minutes and then stimulated with amino acids for 10 minutes. For glucose starvation, cells were incubated in RPMI media lacking glucose but containing amino acids and dialyzed serum for 50 minutes, followed by a 10 minute restimulation with 5 mM D-Glucose. For insulin deprivation, cells were incubated in RPMI without serum for 50 minutes and restimulated with 1 μg/ml insulin for 10 minutes. Finally, when Torin1 or Rapamycin was used, cells were incubated with 250 nM of each throughout the starvation and restimulation period.
HEK-293T cells stably expressing FLAG-WDR24 or the control protein FLAG-metap2 (as described in Example 1) were starved for leucine, arginine, or all amino acids for 50 minutes. In some samples, cells were re-stimulated with leucine, arginine, or all amino acids for 10 minutes and then FLAG immunoprecipitates prepared from cell lysates. Immunoprecipitates and lysates were analyzed by immunoblotting for indicated proteins. Removal of either leucine or arginine from the cell media inhibited mTORC1 signaling, as indicated by S6K1 phosphorylation, to similar extents. Strikingly, however, only leucine starvation caused Sestrin2 to bind to GATOR2 inducing the interaction as effectively as complete amino acid starvation (FIG. 9A). […] Leucine starvation and stimulation also strongly regulated the interaction of endogenous Sestrin1, but not endogenous Sestrin3, with GATOR2 (Figure not shown).

[2] = biological target: T2, bacterially-produced Sestrin2 (Homo sapiens, UniProt P58004); assay: Thermal shift (protein melting) assay; format: binding; details: Sestrin2 at 4 μM, Sypro orange; read-out: shift of the melting temperature of Sestrin2
T2 construct: made in house; host or cells: Escherichia coli BL21 DE3 star
T2 sequence (P58004 1-480): T1 sequence (P58004 1-480)
Protocol: Specific binding of leucine to the bacterially produced Sestrin2 was further confirmed by thermal shift assays. The thermal shift (protein melting) assays were performed according to the LightCycler® 480 instruction manual. Briefly, for Sestrin2, 5× Sypro® orange dye and Sestrin2 at 4 μM were combined with or without leucine or arginine (at the indicated concentrations) in thermal shift buffer (100 mM Tris pH 7.4, 100 mM NaCl, and 1 mM DTT) in a volume of up to 10 μl in one well of a LightCycler® Multiwell 384-well plate. 20× Sypro® orange dye was used for the two control proteins, human choline acetyltransferase (ChAT) (at 4 μM) or Physconitrella patens hydroxycinnamoyl transferase (PpHCT) (at 2.5 μM). Each condition was tested in triplicate. The plate was subjected to a protocol in which the temperature increased from 20° to 85° C. at 0.06° C./second. Fluorescence was recorded and plotted over time, and melting temperatures were calculated as described in the LightCycler® 480 instruction manual. Briefly, the negative first derivative of the curve shown (change in fluorescence/change in temperature) was plotted against the temperature. The peak (i.e., lowest point on this curve) reflects the melting temperature. Each reported melting temperature is the mean±SD for three replicates from one experiment.

Sestrin2-GATOR2 complex = biological target: T3, Sestrin2-GATOR2 complex (Homo sapiens, UniProt P58004); assay: Amino acids added directly to immunopurified Sestrin2-GATOR2 complexes (immunoblot); format: binding
T3 construct: To isolate the FLAG-WDR24/endogenous-Sestrin2 complex; endogenous in cells; host or cells: HEK-293T cells stably expressing FLAG-WDR24; Sestrin2 and the other GATOR2 subunits are endogenous
T3 sequence (P58004 1-480): T1 sequence (P58004 1-480)
Protocol: We next tested if leucine acts directly on the Sestrin2-GATOR2 complex.
HEK-293T cells stably expressing FLAG-WDR24 were starved for all amino acids for 50 minutes, lysed and subjected to anti-FLAG immunoprecipitation as described previously. The GATOR2-Sestrin2 complexes immobilized on the agarose beads were washed twice in lysis buffer with 500 mM NaCl, as previously described, and then incubated for 10 minutes in 1 mL of cytosolic buffer with the indicated concentrations of individual amino acids. The amount of GATOR2 and Sestrin2 that remained bound was assayed by SDS-PAGE and immunoblotting as described previously.

EC50 ([1]; HEK-293T starved of leucine 50 minutes, restimulated 10 minutes, read-out: half-maximal effect on the Sestrin2-GATOR2 interaction in cells): 20 to 40 µM
effect of re-addition on Sestrin2 binding to GATOR2 in cells ([1]; starved 50 minutes, re-stimulated 10 minutes): rapidly reversed the binding
ΔTm [2]: ≤ 8.5 °C
effect on the Sestrin2-GATOR2 interaction in vitro (Sestrin2-GATOR2 complex; 300 μM each, added directly to FLAG immunoprecipitates): disrupted the interaction
EC50 (Sestrin2-GATOR2 complex; added to purified complexes from amino acid-starved cells, equilibrium not attained, relative potency only, read-out: half maximal effect on disruption of the Sestrin2-GATOR2 complex): ~1 µM
Structure (SMILES): CC(C)C[C@H](N)C(=O)O [leucine]

— patent US10168338B2, “Methods of identifying modulators of sestrin-gator-2 interaction for modulating mTORC1 activity” (Whitehead Institute for Biomedical Research, priority 2014, dated 2019)
